From ChEMBL document CHEMBL1201862, “PubChem BioAssay data set” (2004)
Active and inactive are the calls of the source.

Assays:
[1] = molecular target: Endoplasmic reticulum aminopeptidase 1 (Homo sapiens, UniProt Q9NZ08); assay: inhibition of human ERAP1 enzyme activity – biochemical, cherry-pick, set 2, plate reader, dose response (AID 743314)
[2] = viability loss in HEK293 kidney cells – cell-based, cherry-picks, set 5, cytotoxicity control, dose response (AID 1053117); format: functional
[3] = blockers of FN fibrillogenesis by fibroblasts – AH1F cells, Alexa488-FN fluorescence, cherry-picks, dose response (AID 1035475); format: functional, cell-based
[4] = viability loss in HepG2 hepatoma cells – cell-based, ATP luminescence, cherry-pick, activator set 2, cytotoxicity control, dose response (AID 1053143); format: functional
[5] = inhibitors acting on PAX2 in cells – cell-based, plate reader, dry powder samples, selectivity assay for PAX8 inhibitor project, dose response (AID 743048); format: functional;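 also: HEK293 cells carrying a WT1 promoter luciferase reporter driven by expressed Pax2; potency is for inhibition of Pax2 driven reporter signal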
[6] = OVCAR8 cell viability loss – plate reader, dry powder samples, PAX8 project, dose response (AID 743197); format: functional, cell-based; settings: OVCAR-8
[7] = PAX5 cellular inhibition readout – cell-based, plate reader, dry powder samples, selectivity assay for PAX8 inhibitor project, dose response (AID 743047); format: functional;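 also: HEK293 cells carrying a Pax5 driven CD19 promoter luciferase reporter; potency of inhibitors that lower reporter luminescence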
[8] = molecular target: Paired box protein Pax-8 (Homo sapiens, UniProt Q06710); assay: PAX8 transcriptional activity inhibition in RMG-I – RMG-I cells, luciferase, cherry-pick, dose response (AID 687027); format: functional, cell-based;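 also: luciferase reporter driven by Pax8 target thyroperoxidase promoter measured by SteadyGlo luminescence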
Paired box protein Pax-8, sequence (Q06710 whole entry): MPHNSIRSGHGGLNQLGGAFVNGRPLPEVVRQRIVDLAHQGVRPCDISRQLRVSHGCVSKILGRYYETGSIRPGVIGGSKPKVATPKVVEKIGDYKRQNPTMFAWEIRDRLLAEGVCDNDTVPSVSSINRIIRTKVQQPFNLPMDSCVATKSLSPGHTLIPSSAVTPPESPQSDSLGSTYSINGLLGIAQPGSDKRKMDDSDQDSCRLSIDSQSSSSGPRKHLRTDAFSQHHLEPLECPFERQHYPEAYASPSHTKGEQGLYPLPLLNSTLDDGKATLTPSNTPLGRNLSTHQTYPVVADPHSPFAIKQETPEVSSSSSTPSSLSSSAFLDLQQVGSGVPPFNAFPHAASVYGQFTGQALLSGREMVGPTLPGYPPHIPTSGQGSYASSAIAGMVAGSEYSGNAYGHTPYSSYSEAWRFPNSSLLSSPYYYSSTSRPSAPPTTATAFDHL

[9] = OV-90 cell viability loss – plate reader, dry powder, SA8, PAX8 inhibitor project, dose response (AID 743149); format: functional, cell-based
[10] = COV362 cell viability loss – plate reader, dry powder, SA12, cytotoxicity control for PAX8 inhibitor project, dose response (AID 743144); format: functional, cell-based
[11] = OVCAR-3 cell viability loss – plate reader, dry powder samples, PAX8 inhibitor project, dose response (AID 743044); format: functional, cell-based
[12] = PAX8-dependent cell viability loss – plate reader, dry powder, dose response (AID 743049); format: functional, cell-based
[13] = COV434 cell viability loss – plate reader, dry powder, SA7, cytotoxicity control for PAX8 inhibitor project, dose response (AID 743145); format: functional, cell-based
[14] = MITF Orthogonal Assay: SK-MEL-5 CTG Assay Measured in Cell-Based System Using Plate Reader - 2084-02_Inhibitor_Dose_DryPowder_Activity_Set7.; format: functional
[15] = inhibitors of TRPM1-promoter reporter in SK-MEL-5 – cell-based, luciferase, dry powder, set 8, MITF inhibitor project, dose response (AID 624430); format: functional
[16] = MITF: Counter assay: A375 proliferation Measured in Cell-Based System Using Plate Reader - 2084-03_Inhibitor_Dose_DryPowder_Activity_Set8.; format: functional; settings: A-375
[17] = molecular target: T1, Oxysterols receptor LXR-beta (Homo sapiens, UniProt P55055); format: functional, cell-based;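 also: agonist activity at LXR measured by a cell-based luminescence readout across a dose range, run as a counterscreen for daf-12 agonists; HEK293 cells with Gal4-LXR fusion and GAL4-driven luciferase reporter; potency for activation of Gal4-LXR reporter so compounds are agonists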
T1 sequence (P55055 whole entry): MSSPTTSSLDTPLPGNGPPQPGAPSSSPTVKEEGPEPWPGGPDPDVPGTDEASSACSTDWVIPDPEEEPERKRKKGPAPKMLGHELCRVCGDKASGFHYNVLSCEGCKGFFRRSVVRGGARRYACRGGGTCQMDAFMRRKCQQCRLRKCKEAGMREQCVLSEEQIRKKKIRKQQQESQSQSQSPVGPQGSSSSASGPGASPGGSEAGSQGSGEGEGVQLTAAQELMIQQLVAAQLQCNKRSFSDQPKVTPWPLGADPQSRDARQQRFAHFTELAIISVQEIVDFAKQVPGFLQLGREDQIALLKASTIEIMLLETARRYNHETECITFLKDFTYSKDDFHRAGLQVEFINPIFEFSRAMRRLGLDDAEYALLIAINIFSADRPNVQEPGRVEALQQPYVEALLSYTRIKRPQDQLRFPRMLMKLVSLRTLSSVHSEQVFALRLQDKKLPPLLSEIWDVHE

[18] = molecular target: Potassium channel subfamily K member 3 (Homo sapiens, UniProt O14649); assay: inhibition of human KCNK3 channel flux – CHO cells, FluxOR thallium flux, SAR follow-up (AID 652212); format: functional
Potassium channel subfamily K member 3, sequence (O14649 whole entry): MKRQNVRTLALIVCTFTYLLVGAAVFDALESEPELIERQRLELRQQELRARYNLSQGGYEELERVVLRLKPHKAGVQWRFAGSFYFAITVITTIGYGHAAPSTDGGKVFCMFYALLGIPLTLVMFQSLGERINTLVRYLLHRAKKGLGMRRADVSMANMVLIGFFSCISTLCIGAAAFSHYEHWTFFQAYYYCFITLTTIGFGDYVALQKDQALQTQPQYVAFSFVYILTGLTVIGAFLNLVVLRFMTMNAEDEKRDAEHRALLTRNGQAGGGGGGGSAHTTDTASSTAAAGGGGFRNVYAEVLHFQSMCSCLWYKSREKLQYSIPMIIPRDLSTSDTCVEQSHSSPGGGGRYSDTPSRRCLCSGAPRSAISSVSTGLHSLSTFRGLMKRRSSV

[19] = viability loss in A549 lung cancer cells – cell-based, cherry-picks, […], cytotoxicity control, dose response (AID 1053119); format: functional
[20] = molecular target: Heat shock protein HSP 90-alpha (Homo sapiens, UniProt P07900); format: functional, organism-based
[21] = NIH-3T3 fibroblast cytotoxicity, dose response, cytotoxicity control, cell-based, fluorescence, Alamar Blue, secondary assay (AID 2327); format: functional;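 also: NIH-3T3 mouse fibroblasts cultured with fluconazole at 8 µg/mL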
[22] = fluconazole-exposed Candida albicans growth modulators – fluorescence, retest, confirmation (AID 2467); format: functional, cell-based
[23] = kidney cell line viability loss – HEK293T, luminescence plate reader, powder samples, set 4, cytotoxicity control, dose response (AID 651863); format: functional, cell-based; settings: HEK293
[24] = A2780 cell killing – plate reader, dry powder samples, cytotoxicity control, dose response (AID 743046); format: functional, cell-based
[25] = IGROV1 cell killing – plate reader, dry powder samples, PAX8 inhibitor project, dose response (AID 743043); format: functional, cell-based; settings: IGROV-1
[26] = general cell-killing toxicity readout – plate reader, dry powder samples, cytotoxicity control for PAX8 inhibitor project, dose response (AID 743021); format: functional, cell-based
[27] = reduction of Shn3 3'UTR-driven luciferase in osteoblasts – cell-based, Clone20 osteoblasts, firefly luciferase, cherry-picked, dose response (AID 624132); format: functional;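 also: firefly luciferase luminescence from reporter carrying the Shn3 3'UTR in osteoblasts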
[28] = Shn3 3'UTR reporter signal decrease – cell-based, Clone20 osteoblasts, firefly luciferase, cherry-pick, set 2, Schnurri-3 inhibitor project, dose response (AID 720490); format: functional;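 also: actives lower the luminescence signal as inhibitors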
[29] = loss of viability in HepG2 cells – cell-based, CellTiter-Glo, cherry-picked, cytotoxicity control for Shn3 inhibitor project, dose response (AID 624134); format: functional
[30] = non-specific 3'UTR reporter inhibition in Clone20-Shn3RL – cell-based, Renilla luciferase, cherry-picked, counter-screen for Shn3 inhibitor project, dose response (AID 624133); format: functional

Endoplasmic reticulum aminopeptidase 1, sequence (Q9NZ08 whole entry): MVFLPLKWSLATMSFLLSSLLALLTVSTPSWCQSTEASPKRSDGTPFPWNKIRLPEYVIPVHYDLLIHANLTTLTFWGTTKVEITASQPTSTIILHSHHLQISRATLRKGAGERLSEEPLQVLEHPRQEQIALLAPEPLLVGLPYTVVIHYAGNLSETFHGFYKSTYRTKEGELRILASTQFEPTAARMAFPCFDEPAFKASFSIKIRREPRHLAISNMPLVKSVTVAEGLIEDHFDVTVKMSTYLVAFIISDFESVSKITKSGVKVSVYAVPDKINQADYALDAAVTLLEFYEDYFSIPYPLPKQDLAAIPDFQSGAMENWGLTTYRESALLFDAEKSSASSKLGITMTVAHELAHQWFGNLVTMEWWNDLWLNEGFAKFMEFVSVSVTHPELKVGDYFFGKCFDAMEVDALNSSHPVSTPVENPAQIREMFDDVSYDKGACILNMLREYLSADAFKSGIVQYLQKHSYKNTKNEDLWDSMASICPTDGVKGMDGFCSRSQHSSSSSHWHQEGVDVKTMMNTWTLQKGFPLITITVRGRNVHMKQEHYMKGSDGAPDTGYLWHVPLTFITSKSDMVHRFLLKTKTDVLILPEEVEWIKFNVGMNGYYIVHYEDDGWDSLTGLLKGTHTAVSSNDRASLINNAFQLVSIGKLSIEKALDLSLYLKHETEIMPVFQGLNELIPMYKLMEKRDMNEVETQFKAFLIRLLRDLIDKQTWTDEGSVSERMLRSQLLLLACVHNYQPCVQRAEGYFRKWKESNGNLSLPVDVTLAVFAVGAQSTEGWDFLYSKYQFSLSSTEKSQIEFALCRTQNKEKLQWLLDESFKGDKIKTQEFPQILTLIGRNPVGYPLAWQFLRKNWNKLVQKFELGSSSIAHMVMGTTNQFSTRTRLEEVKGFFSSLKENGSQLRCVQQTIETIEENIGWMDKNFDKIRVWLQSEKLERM

Question: For `CCNC(=O)[C@@H]1[C@@H](CO)[C@@H]2Cn3c(ccc(/C=C/c4ccccc4)c3=O)[C@H]1N2C(=O)C1CCCC1`, which AC50 [1] is on record?
Answer: 9.24 µM (active)

Question: What does the source list for `O=S(=O)(c1cccc(F)c1)N1CC[C@H]2[C@H](CO)Nc3ccc(-c4cccc(F)c4)cc3[C@H]21`?
Answer: AC50 [2]: > 52 µM (inactive); AC50 [3]: 41.9 µM (active)

Question: Which AC50 [4] does the source give for `CCC(=O)Nc1cc2nn(-c3ccccc3)nc2cc1Cl` here?
Answer: 5.02 µM (active)

Question: Which results are given for `N#C[C@H]1[C@H](c2ccc(C#CC3CCCC3)cc2)[C@@H](CO)N1C(=O)Nc1ccc(F)cc1`?
Answer: AC50 [5]: 7.21 µM (active); AC50 [6]: 27.2 µM (active); AC50 [7]: 7.84 µM (active); AC50 [8]: 5.59 µM (active); AC50 [9]: 29 µM (active); AC50 [10]: 32.1 µM (active); AC50 [11]: 42.8 µM (active); AC50 [12]: 19.1 µM (active); AC50 [13]: 20.4 µM (active)

Question: What does the source list for `CN1CCN(C2=C(Nc3ccc(I)cc3)C(=O)c3ccccc3C2=O)CC1`?
Answer: AC50 [14]: 8.33 µM (active); AC50 [15]: 7.32 µM (active); AC50 [16]: 26 µM (active)

Question: Which EC50 [17] does the source give for `COCCNc1nc(-c2cc3ccccc3o2)cs1` here?
Answer: > 67.5 µM (inactive)

Question: Which IC50 [18] does the source give for `CCOc1ccccc1NC(=O)c1cccc(NC(=O)c2ccc(OC)cc2)c1` here?
Answer: 0.3 µM (active)

Question: With `Cc1ccc(O)c(-c2cc(-c3cccc(Br)c3)[nH]n2)c1` as the compound, how does the AC50 [19] read?
Answer: 37.3 µM (active)

Question: What about the AC50 [20] of the same compound?
Answer: 3.01 µM (active)

Question: What about the EC50 [21] of the same compound?
Answer: 16.3 µM (active)

Question: What about the EC50 [22] of the same compound?
Answer: 4.48 µM (active)

Question: Which AC50 [23] does the source give for `CCOC(=O)C(C(=O)OCC)c1cc(CNS(=O)(=O)c2ccc(C)cc2C)c2ccccc2n1` here?
Answer: > 52 µM (inactive)

Question: For `COc1ccc(S(=O)(=O)Nc2ccc3c(c2)C(=O)N([C@H](C)CO)C[C@H](C)[C@@H](CN(C)S(=O)(=O)c2ccc(Cl)cc2)OCCCC[C@H](C)O3)cc1`, which AC50 [6] is on record?
Answer: > 70 µM (inactive)

Question: What about the AC50 [8] of the same compound?
Answer: 7.7 µM (active)

Question: What about the AC50 [11] of the same compound?
Answer: 16 µM (active)

Question: What about the AC50 [24] of the same compound?
Answer: 21.4 µM (active)

Question: And the AC50 [25]?
Answer: 24.8 µM (active)

Question: And the AC50 [26]?
Answer: 51.9 µM (active)

Question: For `O=C(Nc1ccc(N2CCOCC2)cc1)c1ccc(Cl)c(S(=O)(=O)N2CCCC2)c1`, which AC50 [27] is on record?
Answer: 2.17 µM (active)

Question: What about the AC50 [28] of the same compound?
Answer: 2.65 µM (active)

Question: And the AC50 [29]?
Answer: 69.4 µM (active)

Question: And the AC50 [30]?
Answer: 22.3 µM (active)
